Assay results from article PMC5515969, “Effects of 31 FDA approved small-molecule kinase inhibitors on isolated rat liver mitochondria” (Archives of Toxicology, 2016).
Where a name gives a salt, the structure may show the parent alone. Read-outs that look alike come from different tables or passages of the source. Marks after values point to notes of the source that are not given here.

Assays:
[1] = tested on: isolated rat liver mitochondria; experiment: Mitochondrial inner membrane potential (MMP), Rhodamine 123; format: biochemical; details: difference in signal between KI and DMSO treated samples at the end of experiments
Excerpt: Fig. 3 KI effects on mitochondrial inner membrane potential (MMP). […] In a, c, data are means and standard derivations from three separate experiments. *p < 0.05 as compared to DMSO-treated samples at the end of experiments. In b, data are means of two independent experiments

[2] = design: method as in product labeling; details: ref product labeling, cited from earlier work; for Labeling for cardiotoxicity: BBW: black box warning, W&P: Warnings and Precautions
[3] = tested on: isolated rat liver mitochondria; details: positive control alamethicin treated samples
RCC III = RCC III activity in submitochondrial particles; format: biochemical, rat; design: key to RCC III at 100XCmax: activity relative to DMSO-treated controls (control set as 1 = 100%); details: for RCC activity III: 15 min, DMSO-treated = 100
Procedure: (§1) KIs were incubated with submitochondrial particles (1 mg/ml) for 15 min and then RCC I–V activities measured. […] The activities of DMSO-treated samples (controls) were set as 1. […] The difference between the activity from rotenone-containing buffer and rotenone-absent buffer was considered as RCC I activity. […] For measuring RCC I/V and II activity, the changes in absorbance at 340 and 600 nm, respectively, were determined every 1 min for 6 min. For measuring RCC III and RCC IV, the changes in absorbance at 550 nm were measured every 10 s for 2 min.

[4] = tested on: isolated rat liver mitochondria; experiment: Mitochondrial ROS production (CM-H2DCFDA)
RCC V = RCC V activity in submitochondrial particles; format: biochemical, rat; details: for RCC activity V: 15 min, DMSO-treated = 100; on RCC V at 5XCmax: key: 0 indicates that the drug had no effects (negative)
Procedure: as §1

RCC II = molecular target: T1, RCC II (Rattus norvegicus, UniProt P21913+Q641Z9+Q6PCT8+Q920L2); experiment: RCC II activity in submitochondrial particles; format: biochemical; design: key: activity relative to DMSO-treated controls (control set as 1 = 100%); details: relative to DMSO treated samples
T1 construct: Submitochondrial particles were prepared by subjecting the intact mitochondria to three successive freeze–thaw cycles; from tissue; host or cells: rat liver mitochondria, used as submitochondrial particles
Procedure: as §1

[5] = tested on: isolated rat liver mitochondria; experiment: Mitochondrial swelling (absorbance at 535 nm); format: biochemical; on Swelling 5XCmax: key: 0 indicates that the drug had no effects (negative)
[6] = cited from earlier work; for Labeling for DILI: BBW: black box warning, W&P: Warnings and Precautions
RCC IV = RCC IV activity in submitochondrial particles; format: biochemical, rat; design: key to RCC IV at 50XCmax / RCC IV at 100XCmax: activity relative to DMSO-treated controls (control set as 1 = 100%); details: for RCC activity IV: 15 min, DMSO-treated = 100
Procedure: as §1

[7] = tested on: isolated rat liver mitochondria; experiment: Mitochondrial oxygen consumption (glutamate/malate or succinate driven, state 4 and state 3); format: biochemical; details: DMSO treated samples set as 1; on State 3 respiration driven by succinate at 10XCmax: key: 0 indicates that the drug had no effects (negative); on State 3 respiration driven by succinate at 1XCmax: key: 0 indicates that the drug had no effects (negative)
Procedure: Rats were anesthetized by an intraperitoneal injection of Nembutal and the liver perfused with PBS to remove the blood. The liver was then cut into small pieces and homogenized using a Dounce type homogenizer in the ice-cold isolation buffer (IB) containing 200 mM sucrose, 10 mM Tris-MOPS, 1 mM EGTA (pH 7.4). The sample was then centrifuged at 600g for 10 min. The supernatant was further centrifuged at 7500g for 10 min, and the pellets was washed once with the IB and centrifuged again at 7500g for 10 min to collect mitochondria. […] Before drug treatment, the protein concentration was adjusted to 1 mg/ml using appropriate buffer. […] Briefly, mitochondrial and cytosolic fractions from four different preparations using four rats were diluted using the Laemmli protein loading buffer and subject to SDS-PAGE with 4–20% gradient gels. The proteins were blotted to PVDF membranes and detected using antibodies against GAPDH, ATP5A, UQCRC2, SDHB, and NDUFB8.
The aliquoted stock solutions were kept for less than one month and each tube was used only once. The KIs were added to the mitochondria at 1:1000 dilutions. […] The Cmax data were from clinical trials which used FDA recommend dosages, route of administration, and duration. […] The final concentration of DMSO for drug treatment was always 0.1%, and control treatments were 0.1% DMSO.
Briefly, mitochondria were incubated with the KIs for 5 min, and then split evenly and loaded to the sample tubes of two Oxytherm systems (Hansatech Instruments Ltd), with one system used for measuring glutamate/malate driven respiration and the other succinate-driven respiration, both of which were defined as state 4 respiration. After 3 min, ADP was added to measure the maximal oxygen consumption rate, which was defined as state 3 respiration. […] The oxygen consumption rate of DMSO-treated samples (controls) was set as 1.

RCC I = RCC I activity in submitochondrial particles; format: biochemical, rat; design: key to RCC I at 10XCmax / RCC I at 100XCmax / RCC I at 50XCmax / RCC I at 30XCmax / RCC I at 20XCmax: activity relative to DMSO-treated controls (control set as 1 = 100%); details: 10XCmax; relative to DMSO treated samples
Procedure: as §1

[8] = read-out: Cmax at µM; therapeutic maximal blood concentration; ref product labeling; cited from earlier work
[9] = difference in signal between KI and DMSO treated samples at the end of experiments
[10] = 1 = DILI positive, 0 = negative, ref product labeling

T1 sequence (Q920L2 35-656): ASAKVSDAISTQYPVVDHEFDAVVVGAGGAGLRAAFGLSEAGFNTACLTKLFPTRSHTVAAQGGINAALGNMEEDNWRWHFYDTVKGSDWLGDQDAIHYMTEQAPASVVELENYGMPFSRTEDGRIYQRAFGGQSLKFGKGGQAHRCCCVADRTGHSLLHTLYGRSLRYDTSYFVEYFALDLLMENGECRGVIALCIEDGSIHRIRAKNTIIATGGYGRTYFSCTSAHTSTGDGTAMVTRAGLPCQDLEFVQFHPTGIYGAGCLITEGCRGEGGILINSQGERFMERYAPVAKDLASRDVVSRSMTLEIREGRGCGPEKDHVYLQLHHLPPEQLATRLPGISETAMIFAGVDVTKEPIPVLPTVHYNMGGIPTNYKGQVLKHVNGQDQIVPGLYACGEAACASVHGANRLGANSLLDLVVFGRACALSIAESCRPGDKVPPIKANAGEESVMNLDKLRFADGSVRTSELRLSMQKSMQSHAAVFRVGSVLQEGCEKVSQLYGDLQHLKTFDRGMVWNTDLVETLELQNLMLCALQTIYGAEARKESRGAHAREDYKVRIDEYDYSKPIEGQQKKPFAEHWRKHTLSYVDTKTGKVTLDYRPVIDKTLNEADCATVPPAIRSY
T1 sequence (P21913 31-282): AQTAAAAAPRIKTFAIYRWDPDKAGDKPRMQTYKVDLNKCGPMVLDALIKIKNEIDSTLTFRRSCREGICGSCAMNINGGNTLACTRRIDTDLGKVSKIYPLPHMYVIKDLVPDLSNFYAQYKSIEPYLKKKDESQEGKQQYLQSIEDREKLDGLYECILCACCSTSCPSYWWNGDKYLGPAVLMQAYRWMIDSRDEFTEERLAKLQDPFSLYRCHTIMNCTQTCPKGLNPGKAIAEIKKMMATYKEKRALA
T1 sequence (Q641Z9 1-169): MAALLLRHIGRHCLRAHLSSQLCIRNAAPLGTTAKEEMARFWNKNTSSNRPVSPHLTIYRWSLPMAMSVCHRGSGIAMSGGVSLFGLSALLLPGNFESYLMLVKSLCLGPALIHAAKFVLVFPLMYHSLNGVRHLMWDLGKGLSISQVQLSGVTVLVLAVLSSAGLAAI
T1 sequence (Q6PCT8 57-159): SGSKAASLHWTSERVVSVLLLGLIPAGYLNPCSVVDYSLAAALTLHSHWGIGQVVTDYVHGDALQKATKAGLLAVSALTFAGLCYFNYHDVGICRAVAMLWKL

Structure (SMILES): C[C@@H](Oc1cc(-c2cnn(C3CCNCC3)c2)cnc1N)c1c(Cl)ccc(F)c1Cl [Crizotinib]
- MMP measured by Rhodamine 123 at 1XCmax [1]: 0
- MMP measured by Rhodamine 123 at 2.5XCmax [1]: 0
- MMP measured by Rhodamine 123 at 5XCmax [1]: 0
- MMP measured by Rhodamine 123 at 10XCmax [1]: 0
- MMP measured by Rhodamine 123 at 20XCmax ([1]; 20XCmax): 0
- MMP measured by Rhodamine 123 at 30XCmax ([1]; 30XCmax): 0
- MMP measured by Rhodamine 123 at 50XCmax ([1]; 50XCmax): 0
- MMP measured by Rhodamine 123 at 100XCmax ([1]; 100XCmax): 0
- Labeling for cardiotoxicity [2]: W&P: QT Interval Prolongation; Bradycardia
- Potential for cardiotoxicity (based on labeling) [2]: 1
- Cytochrome c release 1XCmax [3]: 0
- Cytochrome c release 2.5XCmax [3]: 0
- Cytochrome c release 5XCmax [3]: 0
- Cytochrome c release 10XCmax ([3]; 10XCmax): 0
- Cytochrome c release 20XCmax ([3]; 20XCmax): 0
- Cytochrome c release 30XCmax ([3]; 30XCmax): 0
- Cytochrome c release 50XCmax ([3]; 50XCmax): 12.29±1.27 percentage of the positive control group
- Cytochrome c release 100XCmax ([3]; 100XCmax): 24.66±1.67 percentage of the positive control group
- RCC activity III (RCC III; 20-fold Cmax): 99.67 ± 8.65 % of control
- RCC activity III (RCC III; 30-fold Cmax): 106.26 ± 5.79 % of control
- RCC activity III (RCC III; 50-fold Cmax): 98.02 ± 7.16 % of control
- RCC activity III (RCC III; 100-fold Cmax): 103.28 ± 2.85 % of control
- RCC III at 100XCmax (RCC III; 100XCmax, relative to DMSO treated samples): 0
- ROS measured by CM-H2DCFDA at 1XCmax ([4]; DMSO treated samples set as 1): 0
- ROS measured by CM-H2DCFDA at 2.5XCmax ([4]; DMSO treated samples set as 1): 0
- ROS measured by CM-H2DCFDA at 5XCmax ([4]; DMSO treated samples set as 1): 0
- ROS measured by CM-H2DCFDA at 10XCmax ([4]; DMSO treated samples set as 1): 0
- ROS measured by CM-H2DCFDA at 20XCmax ([4]; 20XCmax, DMSO treated samples set as 1): 1.46±0.08
- ROS measured by CM-H2DCFDA at 30XCmax ([4]; 30XCmax, DMSO treated samples set as 1): 1.75±0.32
- ROS measured by CM-H2DCFDA at 50XCmax ([4]; 50XCmax, DMSO treated samples set as 1): 2.06±0.27
- ROS measured by CM-H2DCFDA at 100XCmax ([4]; 100XCmax, DMSO treated samples set as 1): 2.74±0.18
- effect on ROS production ([4]; highest tested concentrations): significantly ROS production
- RCC V at 5XCmax (RCC V; 5XCmax, relative to DMSO treated samples): 0
- RCC activity V (RCC V; 20-fold Cmax): 95.77 ± 7.64 % of control
- RCC activity V (RCC V; 30-fold Cmax): 98.65 ± 2.98 % of control
- RCC activity V (RCC V; 50-fold Cmax): 91.95 ± 5.63 % of control
- RCC V at 50XCmax (RCC V; 50XCmax, relative to DMSO treated samples): 0
- RCC II at 1.0XCmax (RCC II): 0
- RCC II at 2.5XCmax (RCC II): 0
- RCC II at 5XCmax (RCC II): 0
- RCC II at 10XCmax (RCC II): 0
- RCC II at 20XCmax (RCC II; 20XCmax): 0
- RCC II at 30XCmax (RCC II; 30XCmax): 0
- RCC II at 50XCmax (RCC II; 50XCmax): 0
- RCC II at 100XCmax (RCC II; 100XCmax): 0
- Swelling 1XCmax [5, 9]: 0
- Swelling 2.5XCmax [5, 9]: 0
- Swelling 5XCmax ([5]; 5XCmax, difference in signal between KI and DMSO treated samples at the end of experiments): 0
- Swelling 10XCmax ([5]; 10XCmax, difference in signal between KI and DMSO treated samples at the end of experiments): 0
- Swelling 20XCmax ([5]; 20XCmax, difference in signal between KI and DMSO treated samples at the end of experiments): 0
- Swelling 30XCmax ([5]; 30XCmax, difference in signal between KI and DMSO treated samples at the end of experiments): 0
- Swelling 50XCmax ([5]; 50XCmax, difference in signal between KI and DMSO treated samples at the end of experiments): 0
- Swelling 100XCmax ([5]; 100XCmax, difference in signal between KI and DMSO treated samples at the end of experiments): 0.19±0.03
- effect on mitochondrial swelling ([5]; up to 100-fold Cmax or highest testable concentration, 25 µM calcium chloride): significant mitochondrial swelling
- DILI potential (based on labeling) [6, 10]: 1
- Labeling for DILI ([6]; ref product labeling): W&P: fatal DILI
- labeling for DILI ([6]; W&P warnings and precautions, BBW black box warnings, ref FDA product labeling): W&P: fatal DILI
- DILI potential (based on labeling) ([6]; ref FDA product labeling): 1
- RCC activity IV (RCC IV; 20-fold Cmax): 94.03 ± 9.67 % of control
- RCC activity IV (RCC IV; 30-fold Cmax): 96.65 ± 4.14 % of control
- RCC activity IV (RCC IV; 50-fold Cmax): 103.77 ± 5.67 % of control
- RCC IV at 50XCmax (RCC IV; 50XCmax, relative to DMSO treated samples, in %): 0
- RCC activity IV (RCC IV; 100-fold Cmax): 96.60 ± 8.40 % of control

Structure (SMILES): CNC(=O)c1cc(Oc2ccc(NC(=O)Nc3ccc(Cl)c(C(F)(F)F)c3)cc2)ccn1 [sorafenib tosylate]
- MMP measured by Rhodamine 123 at 1XCmax [1]: 4037±631*
- MMP measured by Rhodamine 123 at 2.5XCmax [1]: 4075±739*
- MMP measured by Rhodamine 123 at 5XCmax [1]: 3781±744*
- MMP measured by Rhodamine 123 at 10XCmax [1]: 3380±680*
- Labeling for cardiotoxicity [2]: W&P: Cardiac Ischemia and/or Infarction; QT Interval Prolongation
- Potential for cardiotoxicity (based on labeling) [2]: 1
- Cytochrome c release 1XCmax [3]: 0
- Cytochrome c release 2.5XCmax [3]: 0
- Cytochrome c release 5XCmax [3]: 12.12±5.17 percentage of the positive control group
- State 3 respiration driven by succinate at 1XCmax ([7]; 1XCmax): 0
- State 4 respiration driven by glutamate/malate at 1XCmax ([7]; 1XCmax): 2.55±0.27
- State 4 respiration driven by succinate at 1XCmax ([7]; 1XCmax): 1.50±0.21
- State 3 respiration driven by glutamate/malate at 2.5XCmax ([7]; 2.5XCmax): 1.57±0.06
- State 3 respiration driven by succinate at 2.5XCmax ([7]; 2.5XCmax): 0.62±0.05
- State 4 respiration driven by glutamate/malate at 2.5XCmax ([7]; 2.5XCmax): 4.92±0.09
- State 4 respiration driven by succinate at 2.5XCmax ([7]; 2.5XCmax): 1.43±0.06
- State 3 respiration driven by succinate at 5XCmax ([7]; 5XCmax): 0.40±0.01
- State 4 respiration driven by glutamate/malate at 5XCmax ([7]; 5XCmax): 3.69±0.12
- State 4 respiration driven by succinate at 5XCmax ([7]; 5XCmax): 0
- State 3 respiration driven by succinate at 10XCmax ([7]; 10XCmax): 0
- State 4 respiration driven by glutamate/malate at 10XCmax ([7]; 10XCmax): 5.00±1.92
- State 4 respiration driven by succinate at 10XCmax ([7]; 10XCmax): 3.34±0.45
- ROS measured by CM-H2DCFDA at 1XCmax ([4]; DMSO treated samples set as 1): 0
- ROS measured by CM-H2DCFDA at 2.5XCmax ([4]; DMSO treated samples set as 1): 0
- ROS measured by CM-H2DCFDA at 5XCmax ([4]; DMSO treated samples set as 1): 0
- ROS measured by CM-H2DCFDA at 10XCmax ([4]; DMSO treated samples set as 1): 0
- RCC V at 10XCmax (RCC V; 10XCmax, relative to DMSO treated samples): 65.55±6.34
- RCC I at 10XCmax (RCC I): 0
- RCC II at 1.0XCmax (RCC II): 0
- RCC II at 2.5XCmax (RCC II): 0
- RCC II at 5XCmax (RCC II): 0
- RCC II at 10XCmax (RCC II): 0
- Swelling 1XCmax [5, 9]: 0
- Swelling 2.5XCmax [5, 9]: 0.29±0.02
- Cmax [8]: 4.3 µM
- DILI potential (based on labeling) [6, 10]: 1
- Labeling for DILI ([6]; ref product labeling): W&P: fatal DILI
